Measurements reported in PMC11079024, “Identification of a family of species-selective complex I inhibitors as potential anthelmintics” (Nature Communications, 2024).
Read-outs that look alike come from different tables or passages of the source.

Target: C. elegans (N2) complex I (NADH:ubiquinone oxidoreductase) (Caenorhabditis elegans, UniProt P24887+Q93873+Q94360)
Assay: biochemical
Type: biochemical
Details: for activity at 0.0001 µM / activity at 0.0005 µM / activity at 0.001 µM / activity at 0.0025 µM / activity at 0.005 µM / activity at 0.013 µM / activity at 0.025 µM / activity at 0.063 µM / activity at 0.125 µM / activity at 0.313 µM / activity at 0.625 µM / activity at 1.5 µM / activity at 3 µM / activity at 15 µM / activity at 37.5 µM / activity at 75 µM: read-out: C. elegans mitochondrial complex I activity; for Log IC50 C. elegans complex I: log10 of IC50 in µM
Outline: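 Complex I rate: initial linear slope of A600 over 15 min, expressed as percent of solvent control. Triple freeze-thawed mitochondria (0.2 mg/mL) in KPi pH 7.5, BSA 3 mg/mL, NADH 80 μM, decylubiquinone 60 μM, DCIP 160 μM, antimycin A, KCN.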

[1] = in vitro complex I dose response on C. elegans mitochondria, average of at least two biological replicates, fit in R (DRC), read-out: IC50 C. elegans complex I
[2] = wild-type (N2) mitochondria, read-out: C. elegans Complex I IC50
[3] = wild-type C. elegans mitochondria, estimated from fitted dose-response curves, read-out: C. elegans Complex I IC50

C. elegans (N2) complex I (NADH:ubiquinone oxidoreductase), sequence (Q94360 17-199): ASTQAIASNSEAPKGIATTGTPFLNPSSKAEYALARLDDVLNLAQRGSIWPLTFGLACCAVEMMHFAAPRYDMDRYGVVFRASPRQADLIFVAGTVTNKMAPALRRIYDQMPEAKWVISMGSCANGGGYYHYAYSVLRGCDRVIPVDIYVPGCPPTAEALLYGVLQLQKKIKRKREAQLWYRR
C. elegans (N2) complex I (NADH:ubiquinone oxidoreductase), sequence (P24887 whole entry): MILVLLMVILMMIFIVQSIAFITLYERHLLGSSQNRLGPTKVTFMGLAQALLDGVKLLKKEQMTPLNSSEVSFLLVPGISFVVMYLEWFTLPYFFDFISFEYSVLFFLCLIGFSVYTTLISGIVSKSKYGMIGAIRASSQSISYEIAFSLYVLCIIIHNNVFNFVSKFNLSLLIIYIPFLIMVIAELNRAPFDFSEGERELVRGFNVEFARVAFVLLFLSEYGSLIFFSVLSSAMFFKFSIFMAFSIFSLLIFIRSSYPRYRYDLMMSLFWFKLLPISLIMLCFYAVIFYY
C. elegans (N2) complex I (NADH:ubiquinone oxidoreductase), sequence (Q93873 31-482): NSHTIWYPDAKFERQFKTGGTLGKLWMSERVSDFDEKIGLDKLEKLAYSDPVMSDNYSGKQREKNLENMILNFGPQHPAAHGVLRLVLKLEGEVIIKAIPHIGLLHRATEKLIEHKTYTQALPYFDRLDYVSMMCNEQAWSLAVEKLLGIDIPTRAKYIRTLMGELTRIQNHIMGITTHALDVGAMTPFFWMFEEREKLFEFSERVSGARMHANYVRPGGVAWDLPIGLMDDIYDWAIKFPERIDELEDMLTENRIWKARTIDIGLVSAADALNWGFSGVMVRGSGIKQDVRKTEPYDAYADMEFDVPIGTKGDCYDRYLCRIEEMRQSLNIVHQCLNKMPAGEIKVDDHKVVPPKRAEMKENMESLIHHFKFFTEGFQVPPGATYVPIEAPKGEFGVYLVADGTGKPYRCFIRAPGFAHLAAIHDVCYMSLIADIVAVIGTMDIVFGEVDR

Question: What does the source list for `Cc1ccccc1OCCCCn1cnc2ccccc21` [Compound 7732524]?
Answer: remaining activity at 0.0001 µM (C. elegans mitochondria, 0.0001 µM, Mean, read-out: in vitro complex I activity relative to solvent control): 109%; remaining activity at 0.0005 µM (C. elegans mitochondria, 0.0005 µM, Mean, read-out: in vitro complex I activity relative to solvent control): 117%; remaining activity at 0.001 µM (C. elegans mitochondria, 0.001 µM, Mean, read-out: in vitro complex I activity relative to solvent control): 115%; remaining activity at 0.0025 µM (C. elegans mitochondria, 0.0025 µM, Mean, read-out: in vitro complex I activity relative to solvent control): 106%; remaining activity at 0.005 µM (C. elegans mitochondria, 0.005 µM, Mean, read-out: in vitro complex I activity relative to solvent control): 87.1%; remaining activity at 0.013 µM (C. elegans mitochondria, 0.013 µM, Mean, read-out: in vitro complex I activity relative to solvent control): 95.4%; remaining activity at 0.025 µM (C. elegans mitochondria, 0.025 µM, Mean, read-out: in vitro complex I activity relative to solvent control): 84.9%; remaining activity at 0.063 µM (C. elegans mitochondria, 0.063 µM, Mean, read-out: in vitro complex I activity relative to solvent control): 60.5%; remaining activity at 0.063 µM (C. elegans mitochondria, 0.063 µM, single replicate, read-out: in vitro complex I activity relative to solvent control): 65%; remaining activity at 0.125 µM (C. elegans mitochondria, 0.125 µM, Mean, read-out: in vitro complex I activity relative to solvent control): 45.4%; remaining activity at 0.125 µM (C. elegans mitochondria, 0.125 µM, single replicate, read-out: in vitro complex I activity relative to solvent control): 44.7%; remaining activity at 0.313 µM (C. elegans mitochondria, 0.313 µM, Mean, read-out: in vitro complex I activity relative to solvent control): 25.3%; remaining activity at 0.313 µM (C. elegans mitochondria, 0.313 µM, single replicate, read-out: in vitro complex I activity relative to solvent control): 21%; remaining activity at 0.625 µM (C. elegans mitochondria, 0.625 µM, Mean, read-out: in vitro complex I activity relative to solvent control): 10.1%; remaining activity at 0.625 µM (C. elegans mitochondria, 0.625 µM, single replicate, read-out: in vitro complex I activity relative to solvent control): 12.2%; remaining activity at 1.5 µM (C. elegans mitochondria, 1.5 µM, Mean, read-out: in vitro complex I activity relative to solvent control): 2.78%; remaining activity at 3 µM (C. elegans mitochondria, 3 µM, Mean, read-out: in vitro complex I activity relative to solvent control): 0.645%; remaining activity at 15 µM (C. elegans mitochondria, 15 µM, Mean, read-out: in vitro complex I activity relative to solvent control): 0.827%; remaining activity at 37.5 µM (C. elegans mitochondria, 37.5 µM, Mean, read-out: in vitro complex I activity relative to solvent control): 0.871%; remaining activity at 75 µM (C. elegans mitochondria, 75 µM, Mean, read-out: in vitro complex I activity relative to solvent control): 6.44%; activity at 0.0001 µM: 130%; activity at 0.0005 µM: 145%; activity at 0.001 µM: 142%; activity at 0.0025 µM: 138%; activity at 0.005 µM: 126%; activity at 0.013 µM: 120%; activity at 0.025 µM: 94.3%; activity at 0.063 µM: 78.2%; activity at 0.125 µM: 53.5%; activity at 0.313 µM: 30.1%; activity at 0.625 µM: 10.6%; activity at 1.5 µM: 3.27%; activity at 3 µM: 1.97%; activity at 15 µM: 1.08%; activity at 37.5 µM: 3.31%; activity at 75 µM: 6.44%; remaining activity at 0.0001 µM (dose 0.0001 µM, wild-type C. elegans, mean of replicates, read-out: in vitro complex I activity relative to solvent control, Mean): 109%; remaining activity at 0.0005 µM (dose 0.0005 µM, wild-type C. elegans, mean of replicates, read-out: in vitro complex I activity relative to solvent control, Mean): 117%; remaining activity at 0.001 µM (dose 0.001 µM, wild-type C. elegans, mean of replicates, read-out: in vitro complex I activity relative to solvent control, Mean): 115%; remaining activity at 0.0025 µM (dose 0.0025 µM, wild-type C. elegans, mean of replicates, read-out: in vitro complex I activity relative to solvent control, Mean): 106%; remaining activity at 0.005 µM (dose 0.005 µM, wild-type C. elegans, mean of replicates, read-out: in vitro complex I activity relative to solvent control, Mean): 87.1%; remaining activity at 0.013 µM (dose 0.013 µM, wild-type C. elegans, mean of replicates, read-out: in vitro complex I activity relative to solvent control, Mean): 95.4%; remaining activity at 0.025 µM (dose 0.025 µM, wild-type C. elegans, mean of replicates, read-out: in vitro complex I activity relative to solvent control, Mean): 84.9%; remaining activity at 0.063 µM (dose 0.063 µM, wild-type C. elegans, mean of replicates, read-out: in vitro complex I activity relative to solvent control, Mean): 60.5%; remaining activity at 0.063 µM (dose 0.063 µM, wild-type C. elegans, single replicate, read-out: in vitro complex I activity relative to solvent control, individual replicate): 65%; remaining activity at 0.125 µM (dose 0.125 µM, wild-type C. elegans, mean of replicates, read-out: in vitro complex I activity relative to solvent control, Mean): 45.4%; remaining activity at 0.125 µM (dose 0.125 µM, wild-type C. elegans, single replicate, read-out: in vitro complex I activity relative to solvent control, individual replicate): 44.7%; remaining activity at 0.313 µM (dose 0.313 µM, wild-type C. elegans, mean of replicates, read-out: in vitro complex I activity relative to solvent control, Mean): 25.3%; remaining activity at 0.313 µM (dose 0.313 µM, wild-type C. elegans, single replicate, read-out: in vitro complex I activity relative to solvent control, individual replicate): 21%; remaining activity at 0.625 µM (dose 0.625 µM, wild-type C. elegans, mean of replicates, read-out: in vitro complex I activity relative to solvent control, Mean): 10.1%; remaining activity at 0.625 µM (dose 0.625 µM, wild-type C. elegans, single replicate, read-out: in vitro complex I activity relative to solvent control, individual replicate): 12.2%; remaining activity at 1.5 µM (dose 1.5 µM, wild-type C. elegans, mean of replicates, read-out: in vitro complex I activity relative to solvent control, Mean): 2.78%; remaining activity at 3 µM (dose 3 µM, wild-type C. elegans, mean of replicates, read-out: in vitro complex I activity relative to solvent control, Mean): 0.645%; remaining activity at 15 µM (dose 15 µM, wild-type C. elegans, mean of replicates, read-out: in vitro complex I activity relative to solvent control, Mean): 0.827%; remaining activity at 37.5 µM (dose 37.5 µM, wild-type C. elegans, mean of replicates, read-out: in vitro complex I activity relative to solvent control, Mean): 0.871%; remaining activity at 75 µM (dose 75 µM, wild-type C. elegans, mean of replicates, read-out: in vitro complex I activity relative to solvent control, Mean): 6.44%; IC50 [1]: 140 nM; Log IC50 C. elegans complex I (C. elegans mitochondria): -0.85 µM; IC50 [2]: 140 nM; IC50 (wild-type (N2) mitochondria, read-out: C. elegans complex I IC50): 104 nM; IC50 [3]: 140 nM

Question: Which results are given for `Cc1ccccc1OCCCn1c(C)nc2ccccc21` [Compound 7916923]?
Answer: activity at 0.0001 µM: 94.5%; activity at 0.0005 µM: 93.6%; activity at 0.001 µM: 94.8%; activity at 0.0025 µM: 99.1%; activity at 0.005 µM: 96.8%; activity at 0.013 µM: 102%; activity at 0.025 µM: 94.3%; activity at 0.063 µM: 89.3%; activity at 0.125 µM: 86.3%; activity at 0.313 µM: 78.5%; activity at 0.625 µM: 65.6%; activity at 1.5 µM: 42.6%; activity at 3 µM: 27.6%; activity at 15 µM: 7.28%; activity at 37.5 µM: 4.39%; activity at 75 µM: 4.47%; IC50 [1]: 1170 nM; Log IC50 C. elegans complex I (C. elegans mitochondria): 0.07 µM; IC50 [3]: 1170 nM

Question: What does the source list for `Brc1ccccc1OCCCCn1cnc2ccccc21` [Compound 7924576]?
Answer: activity at 0.0001 µM: 82.9%; activity at 0.0005 µM: 89.9%; activity at 0.001 µM: 81.8%; activity at 0.0025 µM: 93.2%; activity at 0.005 µM: 91.6%; activity at 0.013 µM: 87.2%; activity at 0.025 µM: 76%; activity at 0.063 µM: 73.6%; activity at 0.125 µM: 67.2%; activity at 0.313 µM: 52.4%; activity at 0.625 µM: 40.5%; activity at 1.5 µM: 21.3%; activity at 3 µM: 12.5%; activity at 15 µM: 10.2%; activity at 75 µM: 5.45%; Log IC50 C. elegans complex I (C. elegans mitochondria): -0.37 µM; IC50 [3]: 430 nM

Question: Which results are given for `FC(F)(F)c1cccc(OCCCCn2cnc3ccccc32)c1` [Compound 7925004]?
Answer: activity at 0.0001 µM: 115%; activity at 0.0005 µM: 105%; activity at 0.001 µM: 110%; activity at 0.0025 µM: 110%; activity at 0.005 µM: 105%; activity at 0.013 µM: 103%; activity at 0.025 µM: 105%; activity at 0.063 µM: 104%; activity at 0.125 µM: 98%; activity at 0.313 µM: 81.9%; activity at 0.625 µM: 91.2%; activity at 1.5 µM: 67.6%; activity at 3 µM: 48.6%; activity at 15 µM: 22.1%; activity at 37.5 µM: 13.1%; activity at 75 µM: 1.4%; IC50 [1]: 2060 nM; Log IC50 C. elegans complex I (C. elegans mitochondria): 0.31 µM; IC50 [2]: 2060 nM; IC50 [3]: 2060 nM
